Source: US20230233701A1 (priority 2020, published 2023)

Legend:
[1] = tested on: OVA protein and OB1 peptide; conditions: three consecutive injections, C57BL/6J
2D2 CD4 T cells = assay: 2D2 CD4 T-cell adoptive transfer and challenge; conditions: amount equimolar to the administered […]-MOG35-55 adduct

Substance | IgG antibody responses against OVA protein or OB1 peptide [1] | division of 2D2 T cells (2D2 CD4 T cells) [%]
OVA protein: free OVA (ovalbumin) protein, equimolar amounts | readily produced such antibodies | –
MOG35-55: amino acids 35-55 of MOG, MEVGWYRSPFSRVVHLYRNGK (SEQ ID NO: 49) (UniProt Q61885 63-83, looked up, fragment) | – | ≤ 5
